Experimental data reported in patent US6737383B1, “Herbicidal oxadiazolidines” (priority 1999, dated 2004).

What was measured:
[1] = system: scentless chamomile; assay: Test E scentless chamomile; assay type: in vivo, Matricaria inodora; conditions: Postemergence
Method: (§1) Compounds evaluated in this test were formulated in a non-phytotoxic solvent mixture which included a surfactant and applied to plants that were in the 1- to 4-leaf stage (postemergence application). A mixture of sandy loam soil and greenhouse potting mix in a 60:40 ratio was used for the postemergence test.
(§2) Plantings of these crops and weed species were adjusted to produce plants of appropriate size for the postemergence test. All plant species were grown using normal greenhouse practices. Crop and weed species include annual bluegrass (Poa annua), blackgrass (Alopecurus myosuroides), black nightshade (Solanum nigra), chickweed (Stellaria media), common poppy (Papaver rhoeas), deadnettle (Lamium amplexicaule), downy brome (Bromus tectorum), field violet (Viola arvensis), galium (Galium aparine), green foxtail (Setaria viridis), Italian ryegrass (Lolium multiflorum), jointed goatgrass (Aegilops cylindrica), kochia (Kochia scoparia), lambsquarters (Chenopodium album), littleseed canarygrass (Phalaris minor), rape (Brassica napus), redroot pigweed (Amaranthus retroflexus), Russian thistle (Salsola kali), scentless chamomile (Matricaria inodora), spring barley (Hordeum vulgare), sugar beet (Beta vulgaris), sunflower (Helianthus annuus), ivyleaf speedwell (Veronica hederaefolia), spring wheat (Triticum aestivum), winter wheat (Triticum aestivum), wild buckwheat (Polygonum convolvulus), wild mustard (Sinapis arvensis), wild oat (Avena fatua), windgrass (Apera spica-venti) and winter barley (Hordeum vulgare).
(§3) Treated plants and untreated controls were maintained in a greenhouse for approximately 21 to 28 days, after which all treated plants were compared to untreated controls and visually evaluated. […] A dash response (-) means no test result.

[2] = system: field violet; assay: Test E field violet; assay type: in vivo, Viola arvensis; conditions: Preemergence
[3] = system: spring barley; assay: Test E spring barley; assay type: in vivo, Hordeum vulgare; conditions: Postemergence
How it was run: (§4)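 Greenhouse test: for postemergence, foliar application at 1- to 4-leaf stage; compound in non-phytotoxic solvent with surfactant. Rating is visual, relative to untreated controls, about 21 to 28 days after treatment.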

[4] = system: field violet; assay: Test E field violet; assay type: in vivo, Viola arvensis; conditions: Postemergence
How it was run: as §4

[5] = system: jointed goatgrass; assay: Test E jointed goatgrass; assay type: in vivo, Aegilops cylindrica; conditions: Postemergence
Method: as §1, §2, §3

[6] = system: rape; assay: Test E rape; assay type: in vivo, Brassica napus; conditions: Postemergence
How it was run: as §4

[7] = system: annual bluegrass; assay: Test E annual bluegrass; assay type: in vivo, Poa annua; conditions: Postemergence
Method: as §1, §2, §3

[8] = system: sunflower; assay: Test E sunflower; assay type: in vivo, Helianthus annuus; conditions: Preemergence
[9] = system: black nightshade; assay: Test E black nightshade; assay type: in vivo, Solanum nigra; conditions: Postemergence
Method: as §1, §2, §3

[10] = system: sugar beet; assay: Test E sugar beet; assay type: in vivo, Beta vulgaris; conditions: Preemergence
[11] = system: galium; assay: Test E galium; assay type: in vivo, Galium aparine; conditions: Postemergence
How it was run: as §4

[12] = system: downy brome; assay: Test E downy brome; assay type: in vivo, Bromus tectorum; conditions: Postemergence; for Plant response rating, Downy brome: 0 to 100 scale
How it was run: as §4

[13] = system: littleseed canarygrass; assay: Test E littleseed canarygrass; assay type: in vivo, Phalaris minor; conditions: Postemergence
How it was run: as §4

[14] = system: annual bluegrass; assay: Test E annual bluegrass; assay type: in vivo, Poa annua; conditions: Preemergence
[15] = system: windgrass; assay: Test E windgrass; assay type: in vivo, Apera spica-venti; conditions: Preemergence
[16] = system: littleseed canarygrass; assay: Test E littleseed canarygrass; assay type: in vivo, Phalaris minor; conditions: Preemergence
[17] = Rate 250 g/ha, 0 to 100 scale (0 no effect, 100 complete control)
[18] = Rate 500 g/ha, 0 to 100 scale, 0 no effect, 100 complete control
[19] = Rate 125 g/ha, 0 to 100 scale (0 no effect, 100 complete control)
[20] = Rate 500 g/ha, 0 to 100 scale where 0 is no effect and 100 is complete control

For `CC(C)N(C(=O)n1oc(=O)n(C(C)C)c1=O)c1ccc(F)cc1F` [Compound 109], the “Plant response rating, Scentless chamo” value ([1]; Rate 125 g/ha, 0 to 100 scale) was 0, the “Plant response rating, Scentless chamo” value [1, 17] was 0 and the “Plant response rating, Scentless chamo” value [1, 18] was 10. For the same compound, the “Plant response rating, Field violet” value [2, 19] was 50, the “Plant response rating, Field violet” value ([2]; Rate 250 g/ha, 0 to 100 scale) was 15 and the “Plant response rating, Field violet” value [2, 20] was 20. The “Plant response rating, Spring Barley” value ([3]; Rate 125 g/ha, 0 to 100 scale) was 30, the “Plant response rating, Spring Barley” value [3, 17] was 20 and the “Plant response rating, Spring Barley” value [3, 18] was 20. The “Plant response rating, Field violet” value ([4]; Rate 125 g/ha, 0 to 100 scale) was 10, the “Plant response rating, Field violet” value [4, 17] was 20 and the “Plant response rating, Field violet” value [4, 18] was 40. For the same compound, the “Plant response rating, Jointed goatgra” value ([5]; Rate 125 g/ha, 0 to 100 scale) was 10, the “Plant response rating, Jointed goatgra” value [5, 17] was 5 and the “Plant response rating, Jointed goatgra” value [5, 18] was 30. The “Plant response rating, Rape” value ([6]; Rate 125 g/ha, 0 to 100 scale) was 50, the “Plant response rating, Rape” value [6, 17] was 50 and the “Plant response rating, Rape” value [6, 18] was 60. The “Plant response rating, Annual bluegras” value ([7]; Rate 125 g/ha, 0 to 100 scale) was 10, the “Plant response rating, Annual bluegras” value [7, 17] was 10 and the “Plant response rating, Annual bluegras” value [7, 18] was 50. The “Plant response rating, Sunflower” value [8, 19] was 0, the “Plant response rating, Sunflower” value ([8]; Rate 250 g/ha, 0 to 100 scale) was 10 and the “Plant response rating, Sunflower” value [8, 20] was 5. The “Plant response rating, Blk nightshade” value ([9]; Rate 125 g/ha, 0 to 100 scale) was 40, the “Plant response rating, Blk nightshade” value [9, 17] was 40 and the “Plant response rating, Blk nightshade” value [9, 18] was 60. For the same compound, the “Plant response rating, Sugar beet” value [10, 19] was 0, the “Plant response rating, Sugar beet” value ([10]; Rate 250 g/ha, 0 to 100 scale) was 60 and the “Plant response rating, Sugar beet” value [10, 20] was 70. For the same compound, the “Plant response rating, Galium” value ([11]; Rate 125 g/ha, 0 to 100 scale) was 50, the “Plant response rating, Galium” value [11, 17] was 30 and the “Plant response rating, Galium” value [11, 18] was 50. The “Plant response rating, Downy brome” value ([12]; Rate 125 g/ha) was 0, the “Plant response rating, Downy brortie” value [12, 17] was 0 and the “Plant response rating, Downy brome” value ([12]; Rate 500 g/ha, 0 no effect, 100 complete control) was 0. The “Plant response rating, LS canarygrass” value ([13]; Rate 125 g/ha, 0 to 100 scale) was 25, the “Plant response rating, LS canarygrass” value [13, 17] was 50 and the “Plant response rating, LS canarygrass” value [13, 18] was 65. The “Plant response rating, Annual bluegras” value [14, 19] was 40, the “Plant response rating, Annual bluegras” value ([14]; Rate 250 g/ha, 0 to 100 scale) was 90 and the “Plant response rating, Annual bluegras” value [14, 20] was 75. The “Plant response rating, Windgrass” value [15, 19] was 100, the “Plant response rating, Windgrass” value [15, 20] was 100 and the “Plant response rating, LS canarygrass” value [16, 19] was 50. The “Plant response rating, LS canarygrass” value ([16]; Rate 250 g/ha, 0 to 100 scale) was 60 and the “Plant response rating, LS canarygrass” value [16, 20] was 50.
